Data set [1] has as its system dihydroorotate dehydrogenase (DHODH). In words: DHODH assay. It is filed as biochemical. The settings on record: test concentration not given. How it is done: 100 μl chalcone or 0.1 M Tris-HCl pH 8.0 is added to a well in a 96-wells microtiter plate. Then 50 μl enzyme dilution is added. The microtiter plate is placed in the Powerwavex340 and the enzymatic reactions starts when adding 100 μl assay mixture. The reaction are measured every 20 sec. for 10 min. The samples with chalcones are compared with the samples with 0.1 M Tris-HCl pH 8.0 and the percent inhibition is calculated.
Enzyme dilution: The solution of recombinant purified enzyme is dissolved in 0.1 M Tris-HCl pH 8 to give an initial velocity of 0.04-0.05 ΔA/min.
2,6-dichlorophenolindophenol (DCIP)-stock solution: 40 mg DCIP and 10 ml 99% Ethanol are mixed for 10 min at RT. Then 100 μl 1.0 M Tris-HCl pH 8 and milliQ H20 are added to a final volume of 100 ml. The A600 of the DCIP-stock solution are measured in a microtiter plate on the Powerwavex340 (Bio-Tek instruments, Inc.)
[…]-stock solution: 25 mM dihydroorotate stock-solution is prepared by first dissolving in the same amount of mol NaOH and then miliQ H20 is added to the final volume.
Assay mix (10 ml solution): 600 μl of DHODH-stock solution and X ml (depending on the A600 value of stock-solution) DCIP to a final A600=2.5 are mixed. Then 0.1 M Tris-HCl pH 8.0 are added to a final volume of 10 ml.
Preparation of compound solution: A 10 mM stock-solution of compound (e.g. a chalcone derivative) is made in dimethylsulfoxid (DMSO). The compound is then diluted in 0.1 M Tris-HCl pH 8 to the test concentrations. The final DMSO concentration in the sample is 10%

In data set [2] the test system is non-fastidious bacteria. The experiment in a line: Activity against non-fastidious bacteria (panel). The settings on record: for activity against Gram-positive non-fastidious bacteria: pathogenic Gram-positive bacteria.
The subject of data set [3] is Bacteroides fragilis, Clostridium perfringens, Clostridium difficele. It is filed as cell-based. As to conditions: single concentration of compound (100 μM).
Data set [4] relates to Staphylococcus aureus ATCC33591 (resistant to methicillin). In words: MIC determination in broth microdilution assay. The settings on record: B: Staphylococcus aureus ATCC33591 (resistant to methicillin); NA: no activity. (Dilution methods test growth across graded concentrations, often in twofold steps.)
The test system of data set [5] is Staphylococcus aureus ATCC29213. The experiment in a line: MIC determination in broth microdilution assay. The settings on record: A: Staphylococcus aureus ATCC29213; NA: no activity.
Data set [6] deals with S. aureus ATCC29213. In words: Killing curve (time-kill) / broth macrodilution MIC. The class given is cell-based, Staphylococcus aureus. As to conditions: for bactericidal or bacteriostatic (time-kill curve): S. aureus ATCC29213, concentrations above the MIC.
The subject of data set [7] is Eschericia coli ESS. The experiment in a line: MIC determination in broth microdilution assay. The settings on record: H: Eschericia coli ESS; NA: no activity.
For data set [8], the system named is Streptococcus pneumoniae #998 (clinical isolate). In words: MIC determination in broth microdilution assay. As to conditions: F: Streptococcus pneumoniae #998; NA: no activity.
Data set [9] concerns Staphylococcus intermedius #2357 (clinical isolate). The experiment in a line: MIC determination in broth microdilution assay. As to conditions: C: Staphylococcus intermedius #2357; NA: no activity.
For data set [10], the system named is Enterococcus faecalis ATCC29212. The experiment in a line: MIC determination in broth microdilution assay. The settings on record: D: Enterococcus faecalis ATCC29212; NA: no activity.
In data set [11] the test system is Enterococcus faecium #17501 (vancomycin-resistant clinical isolate). The experiment in a line: MIC determination in broth microdilution assay. The settings on record: E: Enterococcus faecium #17501 (vancomycin-resistant); NA: no activity.
A short description of data set [12]: Determination of metabolic stability (liver microsomes). The class given is in vitro ADME, Wistar rat. The settings on record: for Metabolic turn-over in vitro: rat liver microsomes, 20 μM, 15 min at 37° C. On the procedure:
incubations were performed with Wistar rat liver microsomes (0.25 mg/ml) in 2% sodium bicarbonate solution. NADP (0.13 mg/ml), glucose-6-phosphate (0.63 mg/ml) and glucose-6-phosophate dehydrogenase (0.38 units/ml) were used as NADPH generation system and UDPGA (0.48 mg/ml) was added to include the phase II reaction, glucuronic acid conjugation, in the assay. After 5 minutes of pre-incubation the reaction was started by addition of the test article to give a final concentration of 20 μM. Samples were incubated for 15 min at 37° C. and the reactions were terminated by addition of equal volumes of acetonitrile. Blank incubations were performed at the same concentration but without addition of microsomes. Both blank and microsome-containing samples were made in replicats of three. Prior to analysis samples were centrifuged for 10 min. at 3500 rpm, HPLC system:
Initial conditions were 40% mobile phase A (acetonitrile) and 60% mobile phase B (10 mM ammonium acetate pH 9.5). During the first 20 minutes, the mobile phase was changed via a linear gradient to 90% A and 10% B. This was followed by a 5 minutes linear gradient to initial conditions, which were maintained for 5 min. The flow rate was 0.20 ml/min and injection volume 10 μl.
(Liver microsomes are a subcellular fraction often used to study metabolism.)

Data set [13] relates to Eschericia coli ATCC25922. In words: MIC determination in broth microdilution assay. As to conditions: G: Eschericia coli ATCC25922; NA: no activity.
In data set [14] the test system is Plasmodium falciparum 3D7. In words: Plasmodium falciparum assay (3H-phenylalanine labelling). It is filed as cell-based. As to conditions: for pIC50: Plasmodium falciparum 3D7 (Table 2), read-out: IC50.
Data set [15] in a line: Determination of solubility in phosphate buffer pH 7.4. It is filed as physicochemical. As to conditions: aqueous buffer at pH 7.4. On the procedure:
Solubility of the compounds was determined by preparing a saturated solution of compound in 0.3 M phosphate buffer (pH 7.4±0.3) in a brown glass tube. The suspensions were rotated slowly for 24 hours. Aliquots were centrifuged for 10 minutes at 14.000 rpm and supernatants were diluted in 40% (v/v) acetonitrile in water prior to HPLC analysis. Concentrations of analytes were quantified against a standard curve and used as term of solubility.
The HPLC-UV method used for the assessment of solubility is the same as used in the in vitro metabolism assay.

In data set [16] the test system is L. major promastigotes. The experiment in a line: Leishmania promastigote assay (3H-thymidine). The settings on record: L. major.

pIC50: −log10 of the molar value. ≈ marks a conversion by molar mass, not a printed value.

A word on the MIC: it is the lowest concentration found to suppress growth. High values mean a need for much substance, low ones inhibition by little substance. In general, pIC50 refers to the IC50 on a negative log10 scale, so that one unit is a factor of ten. Usually Solubility stands for the concentration that dissolves in the medium under given conditions. Read a high Solubility as much dissolved substance.

On to `COc1ccc(C(=O)/C=C/c2ccccc2)cc1` [4′MC, 4′methoxy chalcone, reference compound], for which the “Inhibition of DHODH” value in data set [1] is 7%. The “activity against Gram-positive non-fastidious bacteria” value in data set [2] is “no antibacterial effect at all”.

Consider `CN(C)CCN(C)c1cccc(C(=O)/C=C/c2ccc(Cl)cc2Cl)c1` [B015, (E)-3-(2,4-Dichloro-phenyl)-1-{3-[(2-dimethylamino-ethyl)-methyl-amino]-phenyl}-propenone], for which, in data set [1], the “Inhibition of DHODH” value is recorded as 25%.

As to `CN(C)CCN(C)c1cccc(C(=O)/C=C/c2cc(F)ccc2F)c1` [B017, (E)-3-(2,5-Difluoro-phenyl)-1-{3-[(2-dimethylamino-ethyl)-methyl-amino]-phenyl}-propenone], the “Inhibition of DHODH” value in data set [1] was found to be 23%.

With `CN(C)CCN(C)c1cccc(C(=O)/C=C/c2ccc(Br)cc2F)c1` [B018, (E)-3-(4-Bromo-2-fluoro-phenyl)-1-{3-[(2-dimethylamino-ethyl)-methyl-amino]-phenyl}-propenone], the “Inhibition of DHODH” value in data set [1] is 22%.

Regarding `CCCCN(CCCC)c1cccc(/C=C/C(=O)c2ccccc2NCCN(C)C)c1` [B041, (E)-3-(3-Dibutylamino-phenyl)-1-[2-(2-dimethylamino-ethylamino)-phenyl]-propenone], the “activity against anaerobic bacteria” value in data set [3] is reported as “activity against all microorganisms within the test panel”. Also, the minimum inhibitory concentration (MIC) in [4] was determined as 4.7 µM (≈ 1.98 µg/mL); in data set [5], 4.7 µM (≈ 1.98 µg/mL); in data set [7], 300.0 µM (≈ 126 µg/mL); in [8] it was 18.8 µM (≈ 7.93 µg/mL); in [9] it was 9.4 µM (≈ 3.96 µg/mL); in data set [10], 9.4 µM (≈ 3.96 µg/mL). In data set [11], this compound registered an MIC of 9.4 µM (≈ 3.96 µg/mL). The “MIC (time-kill curve figure)” value in data set [6] (S. aureus ATCC29213) is 9.4 µM (≈ 3.96 µg/mL). In addition, the “dependence of the bactericidal action” value in data set [6] (S. aureus ATCC29213) was “primarily dependent on incubation time”. In [6], the “bactericidal or bacteriostatic (time-kill curve)” value is “bactericidal”.

As to `COc1ccc(C(=O)/C=C/c2ccccc2N(C)CCN(C)C)c(F)c1` [B058, (E)-3-{2-[(2-Dimethylamino-ethyl)-methyl-amino]-phenyl}-1-(2-fluoro-4-methoxy-phenyl)-propenone], the “Inhibition of DHODH” value in data set [1] is reported as 17%.

Consider `Cc1cc(C)cc(-c2ccc(N3CCN(C)CC3)c(/C=C/C(=O)c3ccccc3N)c2)c1` [B115, (E)-1-(2-Amino-phenyl)-3-[3′,5′-dimethyl-4-(4-methyl-piperazin-1-yl)-biphenyl-3-yl]-propenone], for which the minimal inhibitory concentration (MIC) in data set [4] was 4.7 µM (≈ 2 µg/mL); in data set [5], 4.7 µM (≈ 2 µg/mL); in data set [7], 9.4 µM (≈ 4 µg/mL); in data set [8], 9.4 µM (≈ 4 µg/mL); in [9], 4.7 µM (≈ 2 µg/mL); in [10], 4.7 µM (≈ 2 µg/mL). The compound further had a minimal inhibitory concentration (MIC) in data set [11] of 4.7 µM (≈ 2 µg/mL). The “activity against Gram-positive non-fastidious bacteria” value in data set [2] is “increased potency”. Also, the “Metabolic turn-over in vitro” value in [12] turned out to be 0%.

Take `COc1ccc(C(=O)/C=C/c2cc(-c3cc(C)cc(C)c3)ccc2N2CCNCC2)c(CN(C)C)c1` [B117, (E)-1-(2-Dimethylaminomethyl-4-methoxy-phenyl)-3-(3′,5′-dimethyl-4-piperazin-1-yl-biphenyl-3-yl)-propenone]: the minimal inhibitory concentration (MIC) in data set [4] is 4.7 µM (≈ 2.27 µg/mL); in data set [13], 18.8 µM (≈ 9.09 µg/mL); in data set [5] it was 4.7 µM (≈ 2.27 µg/mL); in [7], 4.7 µM (≈ 2.27 µg/mL); in data set [9] it was 9.4 µM (≈ 4.55 µg/mL); in data set [10], 4.7 µM (≈ 2.27 µg/mL). This compound returned an MIC in data set [11] of 4.7 µM (≈ 2.27 µg/mL).

Take `CN(C)CCN(C)c1cc(Br)cc(/C=C/C(=O)c2ccccc2CN(C)C)c1` [B118, (E)-3-{3-Bromo-5-[(2-dimethylamino-ethyl)-methyl-amino]-phenyl}-1-(2-dimethylaminomethyl-phenyl)-propenone]: the “times more potent than LicA” value in data set [14] (Plasmodium falciparum, dose-response curve FIG. 6) amounted to 40.

For `COc1ccc(C(=O)/C=C/c2cc(-c3ccccc3OC)ccc2N2CCCN(C)CC2)c(F)c1` [B143, (E)-1-(2-Fluoro-4-methoxy-phenyl)-3-[2′-methoxy-4-(4-methyl-[1,4]diazepan-1-yl)-biphenyl-3-yl]-propenone], in [6] (S. aureus ATCC29213), the “MIC (time-kill curve figure)” value was found to be 9.4 µM (≈ 4.46 µg/mL). Further, in data set [6], the “bactericidal or bacteriostatic (time-kill curve)” value is listed as “bactericidal”.

On to `Cc1ccccc1-c1ccc(N(C)CCCN(C)C)c(/C=C/C(=O)c2ccccc2CN(C)C)c1` [B147, (E)-1-(2-Dimethylaminomethyl-phenyl)-3-{4-[(3-dimethylamino-propyl)-methyl-amino]-2′-methyl-biphenyl-3-yl}-propenone], for which the negative logarithm of the IC50 (pIC50) in data set [14] is 6.22.

For the compound `Cc1ccccc1-c1ccc(N(C)CCN(C)C)c(/C=C/C(=O)c2ccccc2CN(C)C)c1` [B148, (E)-3-{4-[(2-Dimethylamino-ethyl)-methyl-amino]-2′-methyl-biphenyl-3-yl}-1-(2-dimethylaminomethyl-phenyl)-propenone], the Solubility in data set [15] is 3300 µg/mL (≈ 7.24 mM).

Consider `Cc1ccccc1-c1ccc(N2CCN(C)CC2)c(/C=C/C(=O)c2ccc(O)c(CN(C)C)c2)c1` [B208, (E)-1-(3-Dimethylaminomethyl-4-hydroxy-phenyl)-3-[2′-methyl-4-(4-methyl-piperazin-1-yl)-biphenyl-3-yl]-propenone], for which the negative logarithm of the IC50 (pIC50) in [14] was 6.40; in data set [16], 5.96.

Regarding `Cc1ccccc1-c1ccc(N2CCN(C)CC2)c(/C=C/C(=O)c2ccc(O)cc2)c1` [B209, (E)-1-(4-Hydroxy-phenyl)-3-[2′-methyl-4-(4-methyl-piperazin-1-yl)-biphenyl-3-yl]-propenone], the negative logarithm of the IC50 (pIC50) in [14] is 6.52.

Take `Cc1ccccc1-c1ccc(N2CCN(C)CC2)c(/C=C/C(=O)c2cccc(NC(=O)CN(C)C)c2)c1` [B211, 2-Dimethylamino-N-(3-{3-[2′-methyl-4-(4-methyl-piperazin-1-yl)-biphenyl-3-yl]-(E)-acryloyl}-phenyl)-acetamide]: the pIC50 in [14] was 6.15.

For `C=CC(C)(C)c1cc(/C=C/C(=O)c2ccc(O)cc2)c(OC)cc1O` [LicA, Licochalcone A], the MIC in data set [7] stood at 300.0 µM (≈ 102 µg/mL). The “Inhibition of DHODH” value in [1] turned out to be 25%. Also, the MIC in data set [8] is 75.0 µM (≈ 25.4 µg/mL). In data set [2], the “activity against Gram-positive non-fastidious bacteria” value is on record as “moderate bactericidal activity”. Also, the “activity against Escherichia coli” value in data set [2] (prototype pathogenic Gram-negative bacterium) is “only modest or no activity”. For the same compound, in [12], the “turn-over in vitro” value was 100% and the “Metabolic turn-over in vitro” value is on record as 100%.

The values above are taken from patent US7642367B2, “Diamino-functional chalcones” (Lica Pharmaceuticals A/S, priority 2002, dated 2010).
